Reference: patent publication US11542259B2, “Compounds for the treatment of kinase-dependent disorders” (Exelixis, Inc., priority 2018, dated 2023)
Counter-ions that a name gives are not always drawn.

Experiments:
Format in all cases: cell-based
Mer = Mer (Homo sapiens (Human), UniProt Q12866); assay: Mer autophosphorylation ELISA in transient transfected 293A cells; conditions: cellular, MERTK transfected 293A cells
Description: 293A cells (Thermo Fisher #R70507) were seeded at 1.5×10^6 cells/well onto 100 mm dish (Greiner #664169), in DMEM (Thermo Fisher #11995-040) containing 10% FBS (Thermo Fisher #26140-079), 1% MEM NEAA (Thermo Fisher #11140-050), 1% GlutaMax (Thermo Fisher #35050-061), and 1% Penicillin Streptomycin (Thermo Fisher #15140-122). 293A cells were incubated at 37° C., 5% CO2 for 24 h and then transfected with 6 μg MERTK DNA (Genecopoeia #EX-Z8208-M02) using TransIT LT1 transfection reagent (Mirus-Bio #MIR2305). After 24 h incubation, the transfected 293A cells were seeded at 1×10^5 cells/well onto 96-well plates (Corning #3904) in DMEM growth medium overnight. Test compounds were serially diluted to produce an 8-point dose curve in fresh serum-free medium to a final concentration of 0.3% DMSO (vehicle) and added to the cells and incubated for 1 h. Cells were then immediately lysed with 150 μL of cold 1× lysis buffer [20 mM Tris, 137 mM sodium chloride, 2 mM EDTA, 10% glycerol, 1% NP-40 alternative, 1 mM activated sodium orthovanadate, 1 mM PefaBloc SC (Sigma-Aldrich #11429868001), protease/phosphatase inhibitor tablet (Thermo Fisher #A32959)]. Lysates were clarified by centrifugation and 50 μL/well added into the human phospho-Mer DuoSet IC ELISA (R&D Systems #DYC2579-2). Assay was performed according to manufacturer's instructions and sample phospho-Mer concentrations were extrapolated using human phospho-Mer control (R&D Systems #841793) as a standard. Positive control wells (100% activity) contained DMSO-treated cell lysates. Negative control wells (0% activity) contained reference inhibitor-treated cell lysates. IC50 values were calculated by nonlinear regression analysis using a 4-parameter logistic curve fit in ActivityBase XE (IDBS).

KDR = KDR (Homo sapiens (Human), UniProt P35968); assay: KDR autophosphorylation ELISA in HUVEC cells; conditions: cellular, VEGF165 stimulated
Procedure, shortened: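 HUVECs grown 24 h at 37 °C, then serum-starved 24 h, were preincubated 1 h with an 8-point compound series (0.3% DMSO) and stimulated with 100 ng/mL human VEGF165 for 5 min. Phospho-KDR in lysates was measured by sandwich ELISA against a phospho-KDR standard; IC50 from 4-parameter logistic fit.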

Met = Met (Homo sapiens (Human), UniProt P08581); assay: Met autophosphorylation ELISA in PC-3 cells; conditions: cellular, HGF stimulated, read-out: c-Met IC50
Procedure, shortened: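 PC-3 cells serum-starved 3 h, treated 1 h with 8-point compound series (0.3% DMSO), then stimulated with 100 ng/mL human HGF for 10 min. Lysate phospho-Met (panTyr) measured by sandwich ELISA; IC50 from 4-parameter logistic fit against DMSO and reference-inhibitor controls.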

AXL = AXL (Homo sapiens (Human), UniProt P30530); assay: AXL autophosphorylation ELISA in A-172 cells; conditions: cellular, Gas6 stimulated
Procedure, shortened: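 Serum-starved (24 h) A-172 glioblastoma cells pretreated 1 h with compounds (8-point curve, 0.3% DMSO), then stimulated 15 min with 1 μg/mL Gas6. Lysate phospho-AXL measured by sandwich ELISA against a phospho-AXL standard; IC50 from 4-parameter logistic fit between DMSO and reference-inhibitor controls.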

Chain of KDR (P35968 20-1356): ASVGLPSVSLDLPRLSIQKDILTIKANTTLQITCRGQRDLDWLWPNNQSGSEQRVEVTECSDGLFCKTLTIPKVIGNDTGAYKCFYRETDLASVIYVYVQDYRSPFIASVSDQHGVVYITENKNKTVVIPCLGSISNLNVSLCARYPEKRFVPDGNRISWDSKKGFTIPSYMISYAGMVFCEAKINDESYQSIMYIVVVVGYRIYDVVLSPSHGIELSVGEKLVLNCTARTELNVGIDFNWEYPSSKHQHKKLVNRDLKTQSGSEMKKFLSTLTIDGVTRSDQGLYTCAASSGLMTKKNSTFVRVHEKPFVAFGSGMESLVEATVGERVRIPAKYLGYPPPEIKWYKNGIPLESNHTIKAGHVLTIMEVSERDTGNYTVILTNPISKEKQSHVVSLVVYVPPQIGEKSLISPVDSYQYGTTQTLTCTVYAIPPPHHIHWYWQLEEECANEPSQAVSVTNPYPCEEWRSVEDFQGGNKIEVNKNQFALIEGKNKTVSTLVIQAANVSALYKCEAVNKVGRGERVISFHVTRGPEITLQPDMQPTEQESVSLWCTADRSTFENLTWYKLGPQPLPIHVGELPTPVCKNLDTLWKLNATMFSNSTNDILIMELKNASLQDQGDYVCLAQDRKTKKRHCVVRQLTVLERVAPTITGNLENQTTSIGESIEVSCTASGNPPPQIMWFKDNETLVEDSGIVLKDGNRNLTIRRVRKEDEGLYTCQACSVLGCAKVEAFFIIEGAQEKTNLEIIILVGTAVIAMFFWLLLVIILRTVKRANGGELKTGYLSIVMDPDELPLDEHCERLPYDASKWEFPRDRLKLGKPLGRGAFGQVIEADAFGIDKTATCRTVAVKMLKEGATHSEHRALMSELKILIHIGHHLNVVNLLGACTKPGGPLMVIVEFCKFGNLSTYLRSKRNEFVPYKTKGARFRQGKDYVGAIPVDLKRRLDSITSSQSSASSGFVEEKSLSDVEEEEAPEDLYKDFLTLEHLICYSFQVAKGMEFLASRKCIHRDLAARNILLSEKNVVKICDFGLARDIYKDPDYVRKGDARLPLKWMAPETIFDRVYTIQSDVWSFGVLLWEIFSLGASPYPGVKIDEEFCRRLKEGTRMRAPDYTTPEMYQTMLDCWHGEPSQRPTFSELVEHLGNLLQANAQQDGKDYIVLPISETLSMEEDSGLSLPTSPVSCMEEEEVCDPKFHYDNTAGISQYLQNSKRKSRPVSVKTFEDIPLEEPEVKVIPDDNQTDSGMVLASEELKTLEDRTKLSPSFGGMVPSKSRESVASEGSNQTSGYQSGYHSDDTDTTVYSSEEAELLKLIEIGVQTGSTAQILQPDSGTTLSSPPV
Chain of Mer (Q12866 21-999): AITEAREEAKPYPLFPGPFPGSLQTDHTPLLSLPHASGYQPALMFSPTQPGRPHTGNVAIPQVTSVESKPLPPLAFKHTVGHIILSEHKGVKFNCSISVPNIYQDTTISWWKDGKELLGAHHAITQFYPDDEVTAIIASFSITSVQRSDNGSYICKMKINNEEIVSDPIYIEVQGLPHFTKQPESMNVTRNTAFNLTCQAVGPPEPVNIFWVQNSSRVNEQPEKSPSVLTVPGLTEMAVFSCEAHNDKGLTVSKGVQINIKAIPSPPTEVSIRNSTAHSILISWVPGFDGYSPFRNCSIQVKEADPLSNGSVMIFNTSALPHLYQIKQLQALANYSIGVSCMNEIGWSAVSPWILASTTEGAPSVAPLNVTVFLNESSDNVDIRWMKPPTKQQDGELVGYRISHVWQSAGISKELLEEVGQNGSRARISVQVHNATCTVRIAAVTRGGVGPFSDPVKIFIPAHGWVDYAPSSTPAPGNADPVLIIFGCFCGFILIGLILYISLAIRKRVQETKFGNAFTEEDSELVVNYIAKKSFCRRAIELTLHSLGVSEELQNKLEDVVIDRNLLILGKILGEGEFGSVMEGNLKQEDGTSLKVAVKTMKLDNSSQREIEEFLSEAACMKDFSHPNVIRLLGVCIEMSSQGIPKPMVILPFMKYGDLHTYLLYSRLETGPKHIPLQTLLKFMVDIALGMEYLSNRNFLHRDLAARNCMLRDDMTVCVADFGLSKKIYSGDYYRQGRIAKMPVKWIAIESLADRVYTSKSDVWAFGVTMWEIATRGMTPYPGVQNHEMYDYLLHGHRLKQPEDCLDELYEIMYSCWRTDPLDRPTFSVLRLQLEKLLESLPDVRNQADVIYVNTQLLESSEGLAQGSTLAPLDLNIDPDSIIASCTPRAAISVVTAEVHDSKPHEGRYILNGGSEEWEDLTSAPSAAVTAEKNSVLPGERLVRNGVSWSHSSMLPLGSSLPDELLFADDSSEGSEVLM
Chain of Met (P08581 25-1390): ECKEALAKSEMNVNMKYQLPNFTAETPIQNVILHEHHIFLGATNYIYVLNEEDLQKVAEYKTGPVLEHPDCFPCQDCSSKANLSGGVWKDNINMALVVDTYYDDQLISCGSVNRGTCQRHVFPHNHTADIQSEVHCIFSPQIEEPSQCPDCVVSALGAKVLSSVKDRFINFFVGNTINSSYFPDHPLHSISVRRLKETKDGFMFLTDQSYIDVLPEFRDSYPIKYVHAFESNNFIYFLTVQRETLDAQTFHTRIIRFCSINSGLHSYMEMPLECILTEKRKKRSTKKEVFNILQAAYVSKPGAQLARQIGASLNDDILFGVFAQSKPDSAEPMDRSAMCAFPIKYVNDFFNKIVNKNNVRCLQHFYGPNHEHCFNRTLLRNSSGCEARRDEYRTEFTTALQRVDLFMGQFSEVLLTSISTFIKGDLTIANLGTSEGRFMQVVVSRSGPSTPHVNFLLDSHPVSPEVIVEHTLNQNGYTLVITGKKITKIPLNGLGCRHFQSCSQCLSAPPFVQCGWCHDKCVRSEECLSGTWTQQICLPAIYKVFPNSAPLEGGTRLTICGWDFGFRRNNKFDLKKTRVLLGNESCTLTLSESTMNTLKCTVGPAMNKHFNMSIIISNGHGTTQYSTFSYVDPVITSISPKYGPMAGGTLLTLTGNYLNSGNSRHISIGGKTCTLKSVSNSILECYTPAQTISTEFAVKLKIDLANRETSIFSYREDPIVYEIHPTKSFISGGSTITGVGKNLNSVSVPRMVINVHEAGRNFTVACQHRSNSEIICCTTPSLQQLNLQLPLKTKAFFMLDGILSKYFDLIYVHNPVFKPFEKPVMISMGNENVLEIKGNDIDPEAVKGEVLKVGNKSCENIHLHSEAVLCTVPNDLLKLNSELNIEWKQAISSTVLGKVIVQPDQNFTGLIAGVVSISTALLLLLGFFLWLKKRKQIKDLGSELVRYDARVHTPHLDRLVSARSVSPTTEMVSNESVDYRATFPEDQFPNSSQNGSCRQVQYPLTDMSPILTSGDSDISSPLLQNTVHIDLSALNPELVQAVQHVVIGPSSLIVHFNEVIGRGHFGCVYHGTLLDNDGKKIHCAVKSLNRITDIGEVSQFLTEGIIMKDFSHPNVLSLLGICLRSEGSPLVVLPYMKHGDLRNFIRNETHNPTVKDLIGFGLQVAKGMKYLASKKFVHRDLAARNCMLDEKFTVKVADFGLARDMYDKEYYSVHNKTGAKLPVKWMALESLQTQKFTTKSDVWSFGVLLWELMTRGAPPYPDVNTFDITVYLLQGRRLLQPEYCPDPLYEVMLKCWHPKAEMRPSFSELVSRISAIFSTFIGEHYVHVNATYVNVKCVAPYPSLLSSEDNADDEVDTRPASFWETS
Chain of AXL (P30530 26-894): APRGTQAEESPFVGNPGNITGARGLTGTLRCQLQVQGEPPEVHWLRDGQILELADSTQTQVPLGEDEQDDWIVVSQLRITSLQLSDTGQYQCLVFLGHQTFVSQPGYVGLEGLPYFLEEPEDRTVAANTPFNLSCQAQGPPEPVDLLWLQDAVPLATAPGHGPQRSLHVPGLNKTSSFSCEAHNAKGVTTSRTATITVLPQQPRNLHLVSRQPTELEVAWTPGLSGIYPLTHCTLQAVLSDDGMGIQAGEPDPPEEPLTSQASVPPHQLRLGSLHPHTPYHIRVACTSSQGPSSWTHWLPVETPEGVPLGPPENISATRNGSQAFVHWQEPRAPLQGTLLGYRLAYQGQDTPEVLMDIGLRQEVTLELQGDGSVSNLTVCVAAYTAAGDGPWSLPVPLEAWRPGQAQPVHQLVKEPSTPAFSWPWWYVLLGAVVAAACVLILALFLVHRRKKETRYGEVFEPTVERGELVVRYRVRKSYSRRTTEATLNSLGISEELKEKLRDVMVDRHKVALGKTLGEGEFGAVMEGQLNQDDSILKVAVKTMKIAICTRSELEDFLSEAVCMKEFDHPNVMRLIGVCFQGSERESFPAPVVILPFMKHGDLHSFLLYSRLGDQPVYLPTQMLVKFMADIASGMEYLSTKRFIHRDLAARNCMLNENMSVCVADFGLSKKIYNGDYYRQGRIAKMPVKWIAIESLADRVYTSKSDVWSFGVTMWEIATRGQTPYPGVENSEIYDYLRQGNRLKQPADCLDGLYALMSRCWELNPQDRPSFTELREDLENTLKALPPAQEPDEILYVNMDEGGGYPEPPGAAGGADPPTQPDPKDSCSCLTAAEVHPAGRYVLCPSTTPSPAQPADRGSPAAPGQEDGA

IC50 (Mer) [nM]	IC50 (KDR) [nM]	IC50 (Met) [nM]	IC50 (AXL) [nM]	Compound
≤ 10	≤ 10	10 to 100	≤ 10	CNC(=O)Nc1cc2c(Oc3ccc(NC(=O)C4(C(=O)Nc5ccc(F)cc5)CC4)cc3)ccnc2cc1OC [Compound 279, 1-N′-(4-Fluorophenyl)-1-N-[4-[7-methoxy-6-(methylcarbamoylamino)-quinolin-4-yl]oxyphenyl]cyclopropane-1,1-dicarboxamide]
≤ 10	≤ 10	10 to 100	≤ 10	COC(=O)Nc1cc2c(Oc3ccc(NC(=O)C4(C(=O)Nc5ccc(F)cc5)CC4)cc3)ccnc2cc1OC [Compound 280, Methyl N-[4-[4-[[1-[(4-fluorophenyl)carbamoyl]cyclopropane-carbonyl]amino]phenoxy]-7-methoxyquinolin-6-yl]carbamate]
10 to 100	10 to 100	10 to 100	10 to 100	CCc1noc(-c2cc3c(Oc4ccc(NC(=O)C5(C(=O)Nc6ccc(F)cc6)CC5)cc4)ccnc3cc2OC)n1 [Compound 283, 1-N-[4-[6-(3-Ethyl-1,2,4-oxadiazol-5-yl)-7-methoxyquinolin-4-yl]oxyphenyl]-1-N′-(4-fluorophenyl)cyclopropane-1,1-dicarboxamide Hydrochloride]
10 to 100	10 to 100	10 to 100	10 to 100	CNC(=O)c1cc2nccc(Oc3ccc(NC(=O)C4(C(=O)Nc5ccc(F)cc5)CC4)cc3F)c2cc1C [Compound 289, 1-N′-[3-Fluoro-4-[6-methyl-7-(methylcarbamoyl)quinolin-4-yl]oxyphenyl]-1-N-(4-fluorophenyl)cyclopropane-1,1-dicarboxamide]
≤ 10	100 to 300	≤ 10	≤ 10	CNC(=O)c1cc2nccc(Oc3cc(F)c(NC(=O)C4(C(=O)Nc5ccc(F)cc5)CC4)cc3F)c2cc1C [Compound 290, 1-N′-[2,5-Difluoro-4-[6-methyl-7-(methylcarbamoyl)quinolin-4-yl]oxyphenyl]-1-N-(4-fluorophenyl)cyclopropane-1,1-dicarboxamide]
10 to 100	> 300	10 to 100	10 to 100	CNC(=O)c1cc2nccc(Oc3cc(Cl)c(NC(=O)C4(C(=O)Nc5ccc(F)cc5)CC4)cc3F)c2cc1C [Compound 291, 1-N′-[2-Chloro-5-fluoro-4-[6-methyl-7-(methylcarbamoyl)quinolin-4-yl]oxyphenyl]-1-N-(4-fluorophenyl)cyclopropane-1,1-dicarboxamide]
10 to 100	> 300	10 to 100	10 to 100	CNC(=O)c1cc2nccc(Oc3c(F)cc(NC(=O)C4(C(=O)Nc5ccc(F)cc5)CC4)c(F)c3F)c2cc1C [Compound 292, 1-N-(4-Fluorophenyl)-1-N′-[2,3,5-trifluoro-4-[6-methyl-7-(methylcarbamoyl)quinolin-4-yl]oxyphenyl]cyclopropane-1,1-dicarboxamide]
10 to 100	10 to 100	10 to 100	10 to 100	Cc1cc2c(Oc3ccc(NC(=O)C4(C(=O)Nc5ccc(F)cc5)CC4)cc3F)ccnc2cc1C(N)=O [Compound 293, 1-N′-[4-(7-Carbamoyl-6-methylquinolin-4-yl)oxy-3-fluorophenyl]-1-N-(4-fluorophenyl)cyclopropane-1,1-dicarboxamide]
≤ 10	10 to 100	≤ 10	≤ 10	Cc1cc2c(Oc3cc(F)c(NC(=O)C4(C(=O)Nc5ccc(F)cc5)CC4)cc3F)ccnc2cc1C(N)=O [Compound 294, 1-N′-[4-(7-Carbamoyl-6-methylquinolin-4-yl)oxy-2,5-difluorophenyl]-1-N-(4-fluorophenyl)cyclopropane-1,1-dicarboxamide]
10 to 100	10 to 100	10 to 100	10 to 100	O=C(NOCCO)c1ccc2c(Oc3ccc(NC(=O)C4(C(=O)Nc5ccc(F)cc5)CC4)cc3F)ccnc2c1 [Compound 301, 1-N′-[3-Fluoro-4-[7-(2-hydroxyethoxycarbamoyl)quinolin-4-yl]oxyphenyl]-1-N-(4-fluorophenyl)cyclopropane-1,1-dicarboxamide]
100 to 300	100 to 300	≤ 10	10 to 100	O=C(NOCCO)c1ccc2c(Oc3cc(F)c(NC(=O)C4(C(=O)Nc5ccc(F)cc5)CC4)cc3F)ccnc2c1 [Compound 302, 1-N′-[2,5-Difluoro-4-[7-(2-hydroxyethoxycarbamoyl)quinolin-4-yl]oxyphenyl]-1-N-(4-fluorophenyl)cyclopropane-1,1-dicarboxamide]
